B1: ICAM1: Intercellular Adhesion Molecule 1, also known as Cluster of Differentiation 54 (CD54) (protein, UniProt P05362 28-532, looked up)
Intercellular adhesion …: QTSVSPSKVILPRGGSVLVTCSTSCDQPKLLGIETPLPKKELLLPGNNRKVYELSNVQEDSQPMCYSNCPDGQSTAKTFLTVYWTPERVELAPLPSWQPVGKNLTLRCQVEGGAPRANLTVVLLRGEKELKREPAVGEPAEVTTTVLVRRDHHGANFSCRTELDLRPQGLELFENTSAPYQLQTFVLPATPPQLVSPRVLEVDTQGTVVCSLDGLFPVSEAQVHLALGDQRLNPTVTYGNDSFSAKASVSVTAEDEGTQRLTCAVILGNQSQETLQTVTIYSFPAPNVILTKPEVSEGTEVTVKCEAHPRAKVTLNGVPAQPLGPRAQLLLKATPEDNGRSFSCSATLEVAGQLIHKNQTRELRVLYGPRLDERDCPGNWTWPENSQQTPMCQAWGNPLPELKCLKDGTFPLPIGESVTVTRDLEGTYLCRARSTQGEVTRKVTVNVLSPRYEIVIITVVAAAVIMGTAGLSTYLYNRQRKIKKYRLQQAQKGTPMKPNTQATPP

Experiments:
Format in all cases: cell-based
[1] = tested on: HT29-GFP colorectal cancer cells; experiment: HT29-GFP colorectal cancer cell killing within ECM-filled 2-lane Mimetas ORGANOPLATE (GFP cell debris image analysis); conditions: 10 μM, 5 days, 7-day old single cell colonies, 750 cells
Experimental: Single cells were seen to be uniformly dispensed across the microfluidic lanes and grew into single cell colonies over time.
2-lane Mimetas ORGANOPLATE® wells harboring 7-day old single cell colonies with either 500 cells or 750 cells were treated with 0 or 10 μM Bortezomib (sold under the brand name Velcade in the United States; CAS 179324-69-7) to observe cell killing within the channel over 5 days.

[2] = tested on: activated CD3+ T-cells; experiment: Activated CD3+ T-cell chemotaxis through end-to-end collagen-matrigel ECM plug in 2-lane Mimetas ORGANOPLATE; conditions: for lowest concentration with robust chemotaxis response (migration length) compared to blank media control / lowest concentration with significantly higher total number of responding activated T-cells over blank media controls: 10,000 cells, 96 hours; for lowest concentration with robust chemotaxis response (migration length) compared to blank media control: chemokine refreshed at 48 hours; for lowest concentration with significantly higher total number of responding activated T-cells over blank media controls: one-way ANOVA
Experimental: 50 μl of 37° C. warmed 1×PBS were added to wells in columns 3, 7, 11, 15, 19 and 23 observation windows of Mimetas 2-lane ORGANOPLATE® and stored at 4° C. 5 μl of ice-cold 2 mg/ml collagen mixed with 10% (v/v) of low endotoxin matrigel GFR were added to wells in columns 4, 8, 12, 16, 20 and 24 of chilled Mimetas 2-lane ORGANOPLATE® to potentially create aligned collagen fibers within the microfluidic channels. After the ECM filled all the microfluidic channels, 1 μl of ice-cold ECM was quickly added to wells in columns 1, 2, 5, 6, 9, 10, 13, 14, 17, 18, 21, and 22 to allow for contact to be established between the ECM footprints. 4.5 ml of 37° C. warmed ultrapure water was added to both the ends of sterile MicroClime Environmental Lid and placed atop the Mimetas ORGANOPLATE®. The assembly was placed in a humidified 37° C. cell culture incubator for 45 minutes to ensure complete gelation of all the wells throughout the plate and used for the experiment.
After the gelation, 50 μl of blank media was added to the wells of columns 1, 5, 9, 13, 17 and 21 followed by 50 μl of the desired chemokine at different concentrations in wells of columns 4, 8, 12, 16, 20 and 24. 1:1000 (v/v) NUCLIGHT® Rapid Red dye stained and washed activated CD3+ T-cells were quickly added towards the mouth of the channel allowing increased deposition of cells closer to the mouth of the channel in the wells of column 2, 6, 10, 14, 18 and 22 in RPMI media with 0.5% FBS. CD3+ T-cells were activated for 48 hours prior the experiment with 1:500 (v/v) TRANSACT® beads with 20 IU/mL IL2 in RPMI media with 10% FBS. The ORGANOPLATE® was left undisturbed for 3-5 minutes to allow T-cell settling followed by placing them in humidified 37° C. incubator for the duration of the experiment. Chemokines were replaced as needed after 48 and 96 hours along with the 37° C. warmed ultrapure water within the sterile MicroClime Environmental Lid.
Wells from columns 2, 3, 4, 6, 7, 8, 10, 11, 12, 14, 15, 16, 18, 19, 20, 22, 23 and 24 were imaged in the far red and bright field channels at 4× magnification on days 0, 1, 2, 3, 4, 5 and 6 using an INCELL™ 6500 confocal microscope to identify the cells within the migrating channel. Z-stack of six images at different focal planes 50 μm apart spanning the thickness of the microfluidic channel were captured followed by maximum projection to create a singular image of the migratory channel. Images were then transferred to COLUMBUS™ image segmentation software to extract the X-Y location of the migratory CD3+ T-cells within the microfluidic channel. Area cut-offs and positive signal over background were used to accurately identify the fluorescent T-cells over the background.
The X-Y data of the CD3+ T-cells was transferred to SPOTFIRE™ analytics platform for image representation. The X axis location of the migratory T-cells across 4 different replicate wells were pooled and represented as a horizontal violin plot using the GRAPHPAD™ prism. Kruskal-Wallis test for statistical significance was used to understand the significance of a chemokine concentration in driving increased migration distance into the end-to-end solid ECM channel over blank media controls. Replicates were individually compared amongst each other to ensure significance between the sample and replicate and the lowest significance difference was represented in the graph. […]

[3] = tested on: naive CD3+ T-cells; experiment: Naive CD3+ T-cell chemotaxis through ECM plug in 2-lane Mimetas ORGANOPLATE; conditions: 2.5 μM CXCR3 agonist
Experimental: Nuclight rapid red dye stained naive CD3+ T-cells were added closer to the mouth of the channel at the one end (well/frame 2 (102) of extracellular matrix (2 mg/mL collagen+10% (v/v) Matrigel GFR) filled within 2-lane Mimetas ORGANOPLATE®) to evaluate chemotaxis in response to the small molecule agonist applied to other end of the extracellular matrix plug (well/frame 4 (104)). Well/frame 1 (101) was filled with blank media. […] In order to enhance the adhesion of naïve T-cells to the extracellular matrix, 1 μg/mL of ICAM1 (Intercellular Adhesion Molecule 1, also known as Cluster of Differentiation 54 (CD54)) was also spiked into well/frame 2 of the assay system along with the T-cells. Chemotaxis potential was measured via confocal microscopy, identifying the number of naïve T-cells under migration in response to the chemokine gradient generated within the extracellular matrix.

Molecule	lowest concentration with robust chemotaxis response (migration length) compared to blank media control [2] [nM]	lowest concentration with significantly higher total number of responding activated T-cells over blank media controls [2] [nM]	further results
CC(C)C[C@H](NC(=O)[C@H](Cc1ccccc1)NC(=O)c1cnccn1)B(O)O [Bortezomib]	–	–	number of GFP cell debris aggregates (cell killing) versus 0 μM [1]: statistically significant increase
CXCL12: recombinant chemokine, R&D Systems catalog 350-NS	37.5	18.75	chemotaxis of activated CD3+ T-cells compared to 0 nM ([2]; 300 nM, 120 hours, cells in well 2, media in well 1, chemokine in well 4, refreshed after 48 hours): significantly higher chemotaxis
CXCL10: recombinant chemokine, R&D Systems catalog 266-IP	37.5	150	–
B1	–	–	effect of addition on number of naive T-cells responding to the chemokine gradient ([3]; 1 μg/mL in well 2, 35000 cells): did not influence; impact of inclusion on chemotaxis outcome ([3]; 1 μg/mL in well 2, higher naive T-cell numbers (100,000-150,000)): non-significant impact

— patent US20250116657A1, “HIGH-THROUGHPUT ASSAY FOR CELL MIGRATION, CHEMOTAXIS, AND FUNCTION” (GlaxoSmithKline Intellectual Property Development Limited, priority 2022, published 2025)
